Reference: the supplement of paper PMC9663587

compound: Cc1nc(Nc2ncc(C(=O)Nc3c(C)cccc3Cl)s2)cc(N2CCN(CCO)CC2)n1 [Dasatinib]
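Note: breast cancer and non-malignant breast epithelial cell lines, Deep Dye Drop or Dye Drop imaging, nine half-log doses, GR normalized to time-zero plates and DMSO-only controls.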

Row | Cell Line | GR50, 72 h [µM]
1 | CAMA1 | > 10
2 | HCC1569 | 0.0769
3 | MGH312 | 0.00371
4 | SUM149 | 0.0931
5 | ZR7530 | 0.372

compound: COc1cccc2c1C(=O)c1c(O)c3c(c(O)c1C2=O)C[C@@](O)(C(=O)CO)C[C@@H]3O[C@H]1C[C@H](N)[C@H](O)[C@H](C)O1 [Doxorubicin]

Row | Cell Line | GR50, 72 h [µM]
6 | 184A1 | 0.00333
7 | AU565 | 0.0352
8 | BT20 | 0.00874
9 | BT474 | 0.0267
10 | BT549 | 0.00648
11 | CAL51 | 0.00858
12 | CAL120 | 0.00944
13 | CAMA1 | 0.00747
14 | HCC1569 | 0.0255
15 | MGH312 | 0.00621
16 | SUM44PE | 0.0211
17 | SUM149 | 0.00797
18 | ZR7530 | 0.0148

compound: O=C(c1cc(Cc2n[nH]c(=O)c3ccccc23)ccc1F)N1CCN(C(=O)C2CC2)CC1 [Olaparib/AZD2281]

Row | Cell Line | GR50, 72 h [µM]
19 | 184A1 | > 10
20 | AU565 | > 10
21 | BT20 | > 10
22 | BT474 | > 10
23 | BT549 | > 10
24 | CAL51 | 7.19
25 | CAL120 | 5.12
26 | CAMA1 | > 10
27 | HCC1569 | > 10
28 | MGH312 | > 10
29 | SUM44PE | > 10
30 | SUM149 | 3.87
31 | ZR7530 | > 10

compound: O=C1NC(=O)[C@@H](c2cn3c4c(cccc24)CCC3)[C@@H]1c1c[nH]c2ccccc12 [Tivantinib/ARQ197]

Row | Cell Line | GR50, 72 h [µM]
32 | 184A1 | 0.0644
33 | AU565 | 0.215
34 | BT20 | 0.473
35 | BT474 | 0.551
36 | BT549 | 0.582
37 | CAL51 | 0.588
38 | CAL120 | 0.251
39 | CAMA1 | 0.276
40 | HCC1569 | 0.992
41 | MGH312 | 0.379
42 | SUM44PE | 0.0449
43 | SUM149 | 0.281
44 | ZR7530 | 0.554

compound: CC[C@@H]1C(=O)N(C)c2cnc(Nc3ccc(C(=O)N[C@H]4CC[C@H](N5CCN(CC6CC6)CC5)CC4)cc3OC)nc2N1C(C)C [Volasertib/BI6727]

Row | Cell Line | GR50, 72 h [µM]
45 | 184A1 | 0.0124
46 | AU565 | 0.00381
47 | BT20 | 0.00563
48 | BT474 | 0.00821
49 | BT549 | 0.00884
50 | CAL51 | 0.00591
51 | CAL120 | 0.00185
52 | CAMA1 | 0.00782
53 | HCC1569 | 0.0189
54 | MGH312 | 0.00804
55 | SUM44PE | 0.00884
56 | SUM149 | 0.012
57 | ZR7530 | 0.00621

compound: O=C(CCCCCCC(=O)Nc1ccccc1)NO [Vorinostat]

Row | Cell Line | GR50, 72 h [µM]
58 | 184A1 | 2.52
59 | AU565 | 1.07
60 | BT20 | 2.22
61 | BT474 | 2.71
62 | BT549 | 2.37
63 | CAL51 | 1.83
64 | CAL120 | 1.35
65 | CAMA1 | 0.884
66 | HCC1569 | 3.31
67 | MGH312 | 0.799
68 | SUM44PE | 1.86
69 | SUM149 | 1.37
70 | ZR7530 | 0.844

compound: CN1CCN(C(=O)c2ccc3cc(CCNc4ncnc5ccc(C#N)cc45)ccc3c2)CC1 [senexin b]

Row | Cell Line | GR50, 72 h [µM]
71 | 184A1 | > 10
72 | AU565 | > 10
73 | BT20 | 2.3
74 | BT474 | 5.65
75 | BT549 | > 10
76 | CAL51 | > 10
77 | CAL120 | > 10
78 | CAMA1 | 1.09
79 | HCC1569 | > 10
80 | MCF10A (GM) | > 10
81 | MGH312 | 0.511
82 | PDX1206 | 1.18
83 | SUM44PE | 1.77
84 | SUM149 | > 10
85 | ZR7530 | 1.48

compound: CCc1cnn2c(NCc3ccc[n+]([O-])c3)cc(N3CCCC[C@H]3CCO)nc12

Row | Cell Line | GR50, 72 h [µM]
86 | 184A1 | 0.0086
87 | AU565 | 0.00743
88 | BT20 | 0.0185
89 | BT474 | 0.0162
90 | BT549 | 0.0124
91 | CAL51 | 0.0147
92 | CAL120 | 0.00989
93 | CAMA1 | 0.0146
94 | HCC1569 | 0.0164
95 | MGH312 | 0.0108
96 | SUM44PE | 0.00834
97 | SUM149 | 0.0134
98 | ZR7530 | 0.0163

compound: Cc1nc(-c2cn3c(n2)-c2ccc(-c4cnn(C(C)(C)C(N)=O)c4)cc2OCC3)n(C(C)C)n1 [Taselisib/GDC0032]

Row | Cell Line | GR50, 72 h [µM]
99 | 184A1 | 0.192
100 | AU565 | 0.00379
101 | BT20 | 0.0181
102 | BT474 | 0.00452
103 | BT549 | 2.21
104 | CAL51 | 0.134
105 | CAL120 | 2.53
106 | CAMA1 | 1.77
107 | HCC1569 | 0.0552
108 | MGH312 | 0.0386
109 | SUM44PE | 0.00347
110 | SUM149 | 2.55
111 | ZR7530 | 0.0102

compound: CS(=O)(=O)N1CCN(Cc2cc3nc(-c4cccc5[nH]ncc45)nc(N4CCOCC4)c3s2)CC1 [Pictilisib/GDC0941]

Row | Cell Line | GR50, 72 h [µM]
112 | 184A1 | 1.3
113 | AU565 | 0.067
114 | BT20 | 0.904
115 | BT474 | 0.188
116 | BT549 | 2.78
117 | CAL51 | 2.89
118 | CAL120 | 2.07
119 | CAMA1 | 1.55
120 | HCC1569 | 0.599
121 | MGH312 | 0.0806
122 | SUM44PE | 0.435
123 | SUM149 | 6.06
124 | ZR7530 | 0.217

compound: NC1(C(=O)N[C@@H](CCO)c2ccc(Cl)cc2)CCN(c2nc[nH]c3nccc2-3)CC1 [AZD5363]

Row | Cell Line | GR50, 72 h [µM]
125 | 184A1 | > 10
126 | AU565 | 5.83
127 | BT20 | 2
128 | BT549 | > 10
129 | CAL51 | > 10
130 | CAL120 | > 10
131 | CAMA1 | 0.0498
132 | HCC1569 | 0.358
133 | MCF10A (GM) | > 10
134 | MGH312 | < 0.001
135 | PDX1206 | 0.457
136 | SUM44PE | 0.0475
137 | SUM149 | 6.67
138 | ZR7530 | 0.192

compound: COc1cc2nccc(Oc3ccc(NC(=O)C4(C(=O)Nc5ccc(F)cc5)CC4)cc3)c2cc1OC [Cabozantinib]

Row | Cell Line | GR50, 72 h [µM]
139 | 184A1 | 8.43
140 | AU565 | 9.13
141 | BT20 | 5.35
142 | BT474 | > 10
143 | BT549 | > 10
144 | CAL51 | 7.77
145 | CAL120 | 7.34
146 | CAMA1 | 8.39
147 | HCC1569 | > 10
148 | MGH312 | 6.89
149 | SUM44PE | 5.47
150 | SUM149 | 5.87

compound: CC1(CCN(CC1)C2=CN=C(C(=N2)N)C3=C(C(=CC=C3)Cl)Cl)N [SHP099]

Row | Cell Line | GR50, 72 h [µM]
151 | 184A1 | 6.56
152 | AU565 | > 10
153 | BT20 | > 10
154 | BT474 | > 10
155 | BT549 | > 10
156 | CAL51 | > 10
157 | CAL120 | > 10
158 | CAMA1 | > 10
159 | HCC1569 | > 10
160 | MCF10A (GM) | > 10
161 | MGH312 | > 10
162 | PDX1206 | > 10
163 | SUM44PE | > 10
164 | SUM149 | > 10
165 | ZR7530 | > 10

compound: NC(=O)Nc1cc(-c2cccc(F)c2)sc1C(=O)N[C@H]1CCCNC1 [AZD7762]

Row | Cell Line | GR50, 72 h [µM]
166 | 184A1 | 2.62
167 | AU565 | 0.805
168 | BT20 | 1.1
169 | BT474 | 2
170 | BT549 | 0.0668
171 | CAL51 | 0.0446
172 | CAL120 | 0.156
173 | CAMA1 | 0.253
174 | HCC1569 | 0.0361
175 | MGH312 | 0.202
176 | SUM44PE | 0.0479
177 | SUM149 | 0.0774
178 | ZR7530 | 1.12

compound: C[C@@H]1COCCN1c1cc(C2([S@](C)(=N)=O)CC2)nc(-c2cc[nH]c3nccc2-3)n1 [AZD6738]

Row | Cell Line | GR50, 72 h [µM]
179 | 184A1 | > 10
180 | AU565 | 8.56
181 | BT20 | 5.85
182 | BT474 | 7.93
183 | BT549 | 3.97
184 | CAL51 | 5.34
185 | CAL120 | > 10
186 | CAMA1 | 8.16
187 | HCC1569 | 3.49
188 | MCF10A (GM) | 6.85
189 | PDX1206 | 4.6
190 | SUM44PE | 0.549
191 | SUM149 | 3.87
192 | ZR7530 | > 10

compound: Nc1cc(C(F)(F)F)c(-c2cc(N3CCOCC3)nc(N3CCOCC3)n2)cn1 [Buparlisib/NVP-BKM120]

Row | Cell Line | GR50, 72 h [µM]
193 | 184A1 | 1.52
194 | AU565 | 0.106
195 | BT20 | 0.638
196 | BT474 | 0.281
197 | BT549 | 1.42
198 | CAL51 | 0.989
199 | CAL120 | 0.702
200 | CAMA1 | 1.01
201 | HCC1569 | 0.908
202 | MGH312 | 0.347
203 | SUM44PE | 0.412
204 | SUM149 | 1.45
205 | ZR7530 | 0.534

compound: CC(C)n1nc(-c2ccc3oc(N)nc3c2)c2c(N)ncnc21 [INK128/MLN0128]

Row | Cell Line | GR50, 72 h [µM]
206 | 184A1 | 0.00892
207 | AU565 | 0.00529
208 | BT20 | 0.0129
209 | BT474 | 0.00873
210 | BT549 | 0.0166
211 | CAL51 | 0.015
212 | CAL120 | 0.0115
213 | CAMA1 | 0.00961
214 | HCC1569 | 0.0132
215 | MGH312 | 0.00245
216 | SUM44PE | 0.0102
217 | SUM149 | 0.163
218 | ZR7530 | 0.0153

compound: CC(=O)c1c(C)c2cnc(Nc3ccc(N4CCNCC4)cn3)nc2n(C2CCCC2)c1=O

Row | Cell Line | GR50, 72 h [µM]
219 | 184A1 | 0.0897
220 | AU565 | 0.165
221 | BT20 | 0.0435
222 | BT474 | > 3.16
223 | BT549 | > 3.16
224 | CAL51 | 0.373
225 | CAL120 | > 3.16
226 | CAMA1 | 0.0742
227 | HCC1569 | > 3.16
228 | MGH312 | > 3.16
229 | SUM44PE | 0.212
230 | ZR7530 | 0.0889
